# Results taken from article PMC9130233, “An inhibitor of RORγ for chronic pulmonary obstructive disease treatment” (Scientific Reports, 2022).
# Like-named read-outs stand apart in the source and are kept apart here. Marks after values point to notes of the source that are not given here.
# Experiments:
# [1] = Single dose intranasal PK study in mice; type: in vivo, mouse
# Protocol: A single dose intranasal PK study of PCCR-1 was conducted in male C57 mice at 20 and 50 µg/animal dose. The formulation was prepared in saline with 0.1% v/v tween-80 as the wetting agent. Animals were anesthetized briefly using gaseous isoflurane and oxygen mixture and a 40 µL of the formulation was instilled into both the nostrils (20 µL each) once the animal reached a regular breathing pattern and at pre-determined time points (0.25 h, 0.5 h, 1 h, 2 h, 4 h, 8 h and 24 h), approximately 0.3 mL of blood samples were collected using retro-orbital puncture in suitable anticoagulant (K3 EDTA). The animals were immediately sacrificed and lung was isolated. Blood samples were centrifuged (3000 rpm, 5 min) and plasma was harvested. Lung samples were homogenized in PBS buffer (pH 7.4) and centrifuged to collect the supernatant. Both plasma and lung samples were extracted using methyl t-butyl ether, mixed and centrifuged. The supernatant samples obtained after centrifugation were dried and reconstituted with acetonitrile-ammonium acetate buffer (90:10). The samples were mixed and analyzed in LCMS/MS for the analyte concentrations. Concentration vs time values were subjected to non-compartmental analysis using Phoenix WinNonlin® (Version 6.4) to estimate the appropriate pharmacokinetics parameters.
# [2] = test system: RORγt and IL-17A mRNA in human PBMC; assay: RT-PCR mRNA expression in TCR stimulated human PBMC; type: cell-based; details: PCCR-1 treated PBMCs, healthy subjects
# Protocol: For RT-PCR from human PBMC, 5X 10^6 PBMCs were seeded in 6well pre-coated human anti-CD3 mAb (10 µg/mL) plate, post 30 min of compound treatment cells were stimulated with human anti-CD28 mAb (2 µg/mL). After 48 h cells were pelleted, washed with PBS and total RNA was extracted using TRI reagent. 3 µg of DNase treated RNA was reverse transcribed using iScript select cDNA synthesis kit (Biorad Hercules, CA, USA) to produce single-stranded cDNA. RT-PCR was performed with an real-time thermal cycler Eppendorf Mastercycler Ep (Eppendorf AG, Hamburg, Germany) using iTaq SYBR Green Supermix with ROX kit (Biorad Hercules, CA, USA) with human IL-17A specific primers: 5’- […]-3’(sense primer) and 5'-[…]-3' (antisense primer) and human RORγt specific primers: 5’-[…]-3’ (sense primer) and 5’-[…]-3’ (antisense primer). RT-PCR reaction was carried out for 40 cycles at 95 °C for 15 s, 60 °C for 15 s and 60 °C for 40 s. Data was interpreted using 2(-∆CT) Livak method of analysis.
# [3] = 14-day dose-range inhalation toxicology study in Sprague Dawley rats; type: in vivo, rat
# Protocol: Rats were exposed to PCCR-1 aerosols at 3.4, 10.8 and 32.1 mg/kg/day (delivered dose) for 60 min daily for 14 days using a snout only exposure technique via a modular stainless steel flow past inhalation chamber at indicated doses as mentioned in Table 3. No treatment-related findings noted, including myeloid:erythroid (M:E) ratios in any dose levels except minimal changes in the reticulocytes and adrenal glands.
# The 14-day dose-range inhalation toxicology study was conducted at Charles River Laboratories Edinburgh Ltd, Elphinstone Research Centre, Tranent, East Lothian, EH33 2NE, UK, under the Home Office Project License No. PPL 70/8778, Toxicology of Pharmaceuticals. The UK Home Office controls scientific procedures on animals in the UK and does so by the issue of licences under the Animals (Scientific Procedures) Act 1986. The regulations conform to EU Directive 2010/63/EU and achieve the standard of care required by the US Department of Health and Human Services' Guide for the Care and Use of Laboratory Animals.
# The toxicology study was done in SD (Sprague Dawley) rats that were exposed to PCCR-1 aerosol for 60 min daily at 3.4, 10.8 and 32.1 mg/kg/day (delivered dose) for 14 days using a snout only exposure technique via a modular stainless steel flow past inhalation chamber. A 60% w/w blend of PCCR-1 in Lactose LH201 was prepared by adding the appropriate amount of PCCR-1 to the appropriate amount of lactose. The estimated delivered doses were derived based on analytical aerosol concentration, and respiratory minute volume calculated based on body weight, exposure duration, and animal body weight (Supplementary section B).
# [4] = molecular target: Kinases (~ 40 in no); assay: Kinase panel (~ 40); type: biochemical; parameters: key: NSE No significant effect; V wk very weak (very low-level agonist activity seen with mPPARγ); details: at 10 µM
# From the text: Based on the homology of the ligand binding domains, 3 different isoforms of ROR (hRORα, hRORβ and hRORγ) are reported. Small variations in the LBD regions possibly lead to differences in competitive binding between the nuclear receptors of the ROR isoforms (Fig. 1b). Similar to the assessment of RORγ binding assay, TR-FRET binding assays were also used to assess the affinity of PCCR-1 for other ROR isoforms. […] This was reconfirmed in cellular functional assays for the selected isoforms and nuclear receptors using Gal4 DBD with luciferase reporter system from Indigo (PA, USA). […] In addition, both cellular agonist and antagonist effects as well as for enzyme activity were evaluated with a known reference compound for each target, using a radiolabeled method (Eurofins Cerep, France, Table 1).
# [5] = test system: IL-17 from mouse BAL cells; assay: Ex vivo IL-17 release, cultured BAL cells from cigarette smoke exposed mice; type: cell-based; details: BAL cells from CS exposed mice
# Protocol: The effect of PCCR-1 was evaluated ex vivo using BALf cells from an acute cigarette smoke induced animal model. Animals were exposed to cigarette smoke for 7 days and BALf cells were collected and treated with different doses of PCCR-1 under various stimulatory conditions. […] Stimulation by LPS may represent the inflammatory state during a COPD exacerbation, supporting a potential benefit of PCCR-1 in this disease state.
# C57BL/6 mice were exposed to as per above mentioned protocol. On 7th day, animals were sacrificed and a tracheal cannula was inserted. Three times via the trachea, 1 mL of plain RPMI medium was instilled and recovered by gentle manual aspiration. The recovered BALf was centrifuged, the cell pellet washed twice and finally re-suspended in 5% FBS- RPMI. Isolated BAL cells were pre-incubated with different concentration of PCCR-1 for 60 min, followed by stimulating with 1 µg/ml soluble mouse anti-CD3 and 3 µg/ml mouse anti-CD28 mAbs and/or 100 ng/ml of LPS and incubated for 24-48 h at 37 °C. The supernatant was used for estimating IL-17 by ELISA.
# [6] = Females (n = 5/group), 32.1 mg/kg/day
# [7] = Males (n = 5/group), 32.1 mg/kg/day
smiles,measurement,setting,value
CCn1c(C(C)(C)Oc2ccc(F)cc2F)nc2cc(NC(=O)Cc3ccc(S(=O)(=O)CC)cc3)ccc21 [PCCR-1],"quantifiable levels in lungs, time post dose",[1],up to 24 h
same,mean lung to plasma AUClast ratio,[1]; both doses (20 and 50 µg),> 1000
same,time of peak lung concentrations post dose,[1]; both doses (20 and 50 µg),2 to 4 h
same,Kp,"[1]; male, C57, mouse, lung/plasma, inhaled or intranasal, 50 ug, both doses (20 and 50 µg), read-out: mean lung to plasma Cmax ratio",> 1000
same,IL-17A mRNA expression,[2],significantly inhibited
same,RORγt mRNA expression,[2],downregulation
same,"Microscopic changes: Hypertrophy; zona fasciculata, diffuse (animals affected)",[3]; [6],3
same,"Microscopic changes: hypertrophy, Mild (animals affected)",[3]; [6],2
same,"Microscopic changes: hypertrophy, Minimal (animals affected)",[3]; [6],1
same,adrenal gland Absolute weight (mean ± SD),"[3]; Females, 32.1 mg/kg/day",0.0950 ± 0.0139 g
same,adrenal gland weight Relative to body weight (mean ± SD),"[3]; Females, 32.1 mg/kg/day",0.03168 ± 0.00549%
same,adrenal gland weight Relative to brain weight (mean ± SD),"[3]; Females, 32.1 mg/kg/day",4.657 ± 0.6176%
same,Reticulocyte count (mean ± SD),"[3]; Females, 32.1 mg/kg/day, P ≤ 0.01",295.4 ± 40.3* 10^9/L
same,"Microscopic changes: Hypertrophy; zona fasciculata, diffuse (animals affected)",[3]; [7],0
same,"Microscopic changes: hypertrophy, Mild (animals affected)",[3]; [7],0
same,"Microscopic changes: hypertrophy, Minimal (animals affected)",[3]; [7],0
same,Reticulocyte count (mean ± SD),"[3]; Males, 32.1 mg/kg/day",287.7 ± 62.6 10^9/L
same,adrenal gland Absolute weight (mean ± SD),"[3]; Males, 32.1 mg/kg/day",0.0581 ± 0.0083 g
same,adrenal gland weight Relative to body weight (mean ± SD),"[3]; Males, 32.1 mg/kg/day",0.01553 ± 0.00171%
same,adrenal gland weight Relative to brain weight (mean ± SD),"[3]; Males, 32.1 mg/kg/day",2.803 ± 0.3041%
same,MTD at 14 days,"[3]; Sprague Dawley, in vivo, inhaled or intranasal, rat, 14-day inhalation, read-out: maximum tolerated dose",32.1 mg/kg/day
same,"Microscopic changes: hypertrophy, Minimal (animals affected)","[3]; female, Sprague-Dawley, rat, in vivo, 14 days",0
same,histopathological change of the adrenal gland,"[3]; rat, in vivo",bilateral diffuse hypertrophy of the zona fasciculata
same,reticulocyte count compared with the control group,"[3]; rat, in vivo",1.09 fold
same,Kinases (~ 40 in no),[4],NSE at 10 µM
same,IC50,"[5]; LPS induced, read-out: IL-17 IC50, Mouse BAL cells: LPS",802 nM
same,IC50,"[5]; anti-CD3 + anti-CD28 induced, read-out: IL-17 IC50, Mouse BAL cells: CD3+CD28",903 nM
same,IC50,"[5]; basal, read-out: IL-17 IC50, Mouse BAL cells: Basal",873 nM
